Data reported in the supplement of paper PMC10627819.

How the values were obtained:
Test in all cases: Bliss interaction score (quartile over a dose matrix) (fitness difference); higher = more antagonism (negative = synergy)
[1] = system: S. aureus DSM 20231
Method in brief: (§1)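 Fitness was defined as normalised growth: OD595 at the start of stationary phase divided by the plate's robust no-drug mean and capped at 1. Single-drug fitness was inferred from combination measurements. The Bliss score is observed fitness minus the product of the single-drug values, summarised by quartiles across technical, biological and donor/recipient replicates.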

[2] = system: S. pneumoniae D39V
Method in brief: as §1

[3] = system: S. aureus Newman
Method in brief: as §1

[4] = system: B. subtilis 168
Method in brief: as §1
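Further: first quartile when negative (synergy) and third quartile when positive (antagonism).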

SMILES | Bliss interaction score [1] | Bliss interaction score [2] | Bliss interaction score [3] | Bliss interaction score [4] | Bliss interaction score ([1]; main component drawn) | Bliss interaction score ([2]; main component drawn) | Bliss interaction score ([3]; main component drawn) | Bliss interaction score ([4]; main component drawn)
CN[C@H](CC(C)C)C(=O)N[C@H]1C(=O)N[C@@H](CC(N)=O)C(=O)N[C@H]2C(=O)N[C@H]3C(=O)N[C@H](C(=O)N[C@H](C(=O)O)c4cc(O)cc(O)c4-c4cc3ccc4O)[C@H](O[C@H]3C[C@](C)(N)[C@@H](O)[C@H](C)O3)c3ccc(c(Cl)c3)Oc3cc2cc(c3O[C@@H]2O[C@H](CO)[C@@H](O)[C@H](O)[C@H]2O[C@H]2C[C@](C)(NCc3ccc(-c4ccc(Cl)cc4)cc3)[C@@H](O)[C@H](C)O2)Oc2ccc(cc2Cl)[C@H]1O [Oritavancin] + CCN(CC)CCOC(=O)c1ccc(N)cc1 [Procaine] | -0.0785 | -0.0615 | -0.0513 | -0.0177 |  |  |  | 
CC[C@H](C)[C@H](N)C1=N[C@H](C(=O)N[C@@H](CC(C)C)C(=O)N[C@H](CCC(=O)O)C(=O)N[C@H](C(=O)N[C@H]2CCCCNC(=O)[C@H](CC(N)=O)NC(=O)[C@@H](CC(=O)O)NC(=O)[C@H](Cc3cnc[nH]3)NC(=O)[C@@H](Cc3ccccc3)NC(=O)[C@H]([C@@H](C)CC)NC(=O)[C@@H](CCCN)NC2=O)[C@@H](C)CC)CS1 [Bacitracin] + CN(C)[C@@H]1C(O)=C(C(N)=O)C(=O)[C@@]2(O)C(O)=C3C(=O)c4c(O)ccc(Cl)c4[C@@](C)(O)[C@H]3C[C@@H]12 [Clortetracycline] |  |  |  |  | 0.0294 | 0.135 | -0.0827 | -0.12
CN[C@H](CC(C)C)C(=O)N[C@H]1C(=O)N[C@@H](CC(N)=O)C(=O)N[C@H]2C(=O)N[C@H]3C(=O)N[C@H](C(=O)N[C@H](C(=O)O)c4cc(O)cc(O)c4-c4cc3ccc4O)[C@H](O[C@H]3C[C@](C)(N)[C@@H](O)[C@H](C)O3)c3ccc(c(Cl)c3)Oc3cc2cc(c3O[C@@H]2O[C@H](CO)[C@@H](O)[C@H](O)[C@H]2O[C@H]2C[C@](C)(NCc3ccc(-c4ccc(Cl)cc4)cc3)[C@@H](O)[C@H](C)O2)Oc2ccc(cc2Cl)[C@H]1O [Oritavancin] + CC1(C)S[C@@H]2[C@H](NC(=O)Cc3ccccc3)C(=O)N2[C@H]1C(=O)O [PenicillinG] | 0.0356 | 0.0412 | -0.066 | 0.0358 |  |  |  | 
CC[C@H]1OC(=O)[C@H](C)[C@@H](O[C@H]2C[C@@](C)(OC)[C@@H](O)[C@H](C)O2)[C@H](C)[C@@H](O[C@@H]2O[C@H](C)C[C@H](N(C)C)[C@H]2O)[C@](C)(O)C[C@@H](C)C(=O)[C@H](C)[C@@H](O)[C@]1(C)O [Erythromycin] + CCN(CC)CCOC(=O)c1ccc(N)cc1 [Procaine] | -0.0573 | -0.048 | 0.0663 | -0.0671 |  |  |  | 
CN[C@@H]1[C@H](O)[C@H](NC)[C@H]2O[C@@]3(O)C(=O)C[C@@H](C)O[C@H]3O[C@@H]2[C@H]1O [Spectinomycin] + Oc1cc(Cl)ccc1Oc1ccc(Cl)cc1Cl [Triclosan] | -0.0648 | 0.0557 | 0.0626 | -0.0762 |  |  |  | 
CC[C@H]1OC(=O)[C@H](C)[C@@H](O[C@H]2C[C@@](C)(OC)[C@@H](O)[C@H](C)O2)[C@H](C)[C@@H](O[C@@H]2O[C@H](C)C[C@H](N(C)C)[C@H]2O)[C@](C)(O)C[C@@H](C)C(=O)[C@H](C)[C@@H](O)[C@]1(C)O [Erythromycin] + CN(N=O)C(=O)N[C@@H](C=O)[C@@H](O)[C@H](O)[C@H](O)CO [Streptozotocin] | -0.0271 | -0.0459 | -0.0533 | -0.0271 |  |  |  | 
CC[C@H](C)[C@H](N)C1=N[C@H](C(=O)N[C@@H](CC(C)C)C(=O)N[C@H](CCC(=O)O)C(=O)N[C@H](C(=O)N[C@H]2CCCCNC(=O)[C@H](CC(N)=O)NC(=O)[C@@H](CC(=O)O)NC(=O)[C@H](Cc3cnc[nH]3)NC(=O)[C@@H](Cc3ccccc3)NC(=O)[C@H]([C@@H](C)CC)NC(=O)[C@@H](CCCN)NC2=O)[C@@H](C)CC)CS1 [Bacitracin] + CC[C@H]1OC(=O)[C@H](C)[C@@H](O[C@H]2C[C@@](C)(OC)[C@@H](O)[C@H](C)O2)[C@H](C)[C@@H](O[C@@H]2O[C@H](C)C[C@H](N(C)C)[C@H]2O)[C@](C)(OC)C[C@@H](C)C(=O)[C@H](C)[C@@H](O)[C@]1(C)O [Clarithromycin] |  |  |  |  | -0.0475 | -0.0454 | -0.0869 | 0.0539
CC[C@H](C)[C@H](N)C1=N[C@H](C(=O)N[C@@H](CC(C)C)C(=O)N[C@H](CCC(=O)O)C(=O)N[C@H](C(=O)N[C@H]2CCCCNC(=O)[C@H](CC(N)=O)NC(=O)[C@@H](CC(=O)O)NC(=O)[C@H](Cc3cnc[nH]3)NC(=O)[C@@H](Cc3ccccc3)NC(=O)[C@H]([C@@H](C)CC)NC(=O)[C@@H](CCCN)NC2=O)[C@@H](C)CC)CS1 [Bacitracin] + CO[C@@]12[C@H](COC(N)=O)C3=C(C(=O)C(C)=C(N)C3=O)N1C[C@@H]1N[C@@H]12 [MitomycinC] |  |  |  |  | -0.0743 | -0.0853 | -0.0961 | -0.0673
CO[C@@]12[C@H](COC(N)=O)C3=C(C(=O)C(C)=C(N)C3=O)N1C[C@@H]1N[C@@H]12 [MitomycinC] + CN[C@H](CC(C)C)C(=O)N[C@H]1C(=O)N[C@@H](CC(N)=O)C(=O)N[C@H]2C(=O)N[C@H]3C(=O)N[C@H](C(=O)N[C@H](C(=O)O)c4cc(O)cc(O)c4-c4cc3ccc4O)[C@H](O[C@H]3C[C@](C)(N)[C@@H](O)[C@H](C)O3)c3ccc(c(Cl)c3)Oc3cc2cc(c3O[C@@H]2O[C@H](CO)[C@@H](O)[C@H](O)[C@H]2O[C@H]2C[C@](C)(NCc3ccc(-c4ccc(Cl)cc4)cc3)[C@@H](O)[C@H](C)O2)Oc2ccc(cc2Cl)[C@H]1O [Oritavancin] | -0.0806 | -0.0514 | 0.0841 | 0.017 |  |  |  | 
CC[C@H]1OC(=O)[C@H](C)[C@@H](O[C@H]2C[C@@](C)(OC)[C@@H](O)[C@H](C)O2)[C@H](C)[C@@H](O[C@@H]2O[C@H](C)C[C@H](N(C)C)[C@H]2O)[C@](C)(O)C[C@@H](C)C(=O)[C@H](C)[C@@H](O)[C@]1(C)O [Erythromycin] + COc1c(N2C[C@@H]3CCCN[C@@H]3C2)c(F)cc2c(=O)c(C(=O)O)cn(C3CC3)c12 [Moxifloxacin] | 0.0532 | 0.101 | 0.0486 | 0.0269 |  |  |  | 
CC[C@H](C)[C@H](N)C1=N[C@H](C(=O)N[C@@H](CC(C)C)C(=O)N[C@H](CCC(=O)O)C(=O)N[C@H](C(=O)N[C@H]2CCCCNC(=O)[C@H](CC(N)=O)NC(=O)[C@@H](CC(=O)O)NC(=O)[C@H](Cc3cnc[nH]3)NC(=O)[C@@H](Cc3ccccc3)NC(=O)[C@H]([C@@H](C)CC)NC(=O)[C@@H](CCCN)NC2=O)[C@@H](C)CC)CS1 [Bacitracin] + CC[C@H]1OC(=O)[C@H](C)[C@@H](O[C@H]2C[C@@](C)(OC)[C@@H](O)[C@H](C)O2)[C@H](C)[C@@H](O[C@@H]2O[C@H](C)C[C@H](N(C)C)[C@H]2O)[C@](C)(O)C[C@@H](C)C(=O)[C@H](C)[C@@H](O)[C@]1(C)O [Erythromycin] |  |  |  |  | -0.0209 | 0.0397 | -0.0632 | -0.0517
CN[C@H](CC(C)C)C(=O)N[C@H]1C(=O)N[C@@H](CC(N)=O)C(=O)N[C@H]2C(=O)N[C@H]3C(=O)N[C@H](C(=O)N[C@H](C(=O)O)c4cc(O)cc(O)c4-c4cc3ccc4O)[C@H](O[C@H]3C[C@](C)(N)[C@@H](O)[C@H](C)O3)c3ccc(c(Cl)c3)Oc3cc2cc(c3O[C@@H]2O[C@H](CO)[C@@H](O)[C@H](O)[C@H]2O[C@H]2C[C@](C)(NCc3ccc(-c4ccc(Cl)cc4)cc3)[C@@H](O)[C@H](C)O2)Oc2ccc(cc2Cl)[C@H]1O [Oritavancin] + CC1=C\[C@@H](O)CC(=O)Cc2nc(co2)C(=O)N2CCC=C2C(=O)O[C@H](C(C)C)[C@H](C)/C=C/C(=O)NC\C=C\1 [Virginiamycin M1] | -0.0348 | 0.0739 | -0.0713 | -0.0178 |  |  |  | 
CN[C@@H]1[C@H](O[C@H]2[C@H](O[C@H]3[C@H](O)[C@@H](O)[C@H](N=C(N)N)[C@@H](O)[C@@H]3N=C(N)N)O[C@@H](C)[C@]2(O)C=O)O[C@@H](CO)[C@H](O)[C@H]1O [Streptomycin] + Cc1cc(NS(=O)(=O)c2ccc(N)cc2)no1 [Sulfamethoxazol] | 0.0929 | 0.0624 | 0.0497 | -0.126 |  |  |  | 
CO[C@@H]1[C@@H](OC(N)=O)[C@@H](O)[C@H](Oc2ccc3c(O)c(NC(=O)c4ccc(O)c(CC=C(C)C)c4)c(=O)oc3c2C)OC1(C)C [Novobiocin] + Oc1cc(Cl)ccc1Oc1ccc(Cl)cc1Cl [Triclosan] | 0.0686 | 0.177 | -0.0304 | 0.0532 |  |  |  | 
CC(=O)NC[C@H]1CN(c2ccc(N3CCOCC3)c(F)c2)C(=O)O1 [Linezolid] + Oc1cc(Cl)ccc1Oc1ccc(Cl)cc1Cl [Triclosan] | -0.0777 | -0.0928 | 0.026 | 0.0335 |  |  |  | 
CC[C@H](C)[C@H](N)C1=N[C@H](C(=O)N[C@@H](CC(C)C)C(=O)N[C@H](CCC(=O)O)C(=O)N[C@H](C(=O)N[C@H]2CCCCNC(=O)[C@H](CC(N)=O)NC(=O)[C@@H](CC(=O)O)NC(=O)[C@H](Cc3cnc[nH]3)NC(=O)[C@@H](Cc3ccccc3)NC(=O)[C@H]([C@@H](C)CC)NC(=O)[C@@H](CCCN)NC2=O)[C@@H](C)CC)CS1 [Bacitracin] + CC1(C)S[C@@H]2[C@H](NC(=O)Cc3ccccc3)C(=O)N2[C@H]1C(=O)O [PenicillinG] |  |  |  |  | 0.0263 | -0.0799 | 0.0689 | -0.164
CO[C@@]12[C@H](COC(N)=O)C3=C(C(=O)C(C)=C(N)C3=O)N1C[C@@H]1N[C@@H]12 [MitomycinC] + Cc1onc(-c2ccccc2)c1C(=O)N[C@@H]1C(=O)N2[C@@H]1SC(C)(C)[C@@H]2C(=O)O [Oxacillin] | 0.0499 | 0.0896 | 0.046 | -0.0799 |  |  |  | 
CC[C@H]1OC(=O)[C@H](C)[C@@H](O[C@H]2C[C@@](C)(OC)[C@@H](O)[C@H](C)O2)[C@H](C)[C@@H](O[C@@H]2O[C@H](C)C[C@H](N(C)C)[C@H]2O)[C@](C)(O)C[C@@H](C)C(=O)[C@H](C)[C@@H](O)[C@]1(C)O [Erythromycin] + CO[C@H]1/C=C/O[C@@]2(C)Oc3c(C)c(O)c4c(O)c(c(/C=N/N5CCN(C)CC5)c(O)c4c3C2=O)NC(=O)/C(C)=C\C=C\[C@H](C)[C@H](O)[C@@H](C)[C@@H](O)[C@@H](C)[C@H](OC(C)=O)[C@@H]1C [Rifampicin] | 0.0363 | 0.0763 | 0.0582 | 0.116 |  |  |  | 
CN[C@H](CC(C)C)C(=O)N[C@H]1C(=O)N[C@@H](CC(N)=O)C(=O)N[C@H]2C(=O)N[C@H]3C(=O)N[C@H](C(=O)N[C@H](C(=O)O)c4cc(O)cc(O)c4-c4cc3ccc4O)[C@H](O[C@H]3C[C@](C)(N)[C@@H](O)[C@H](C)O3)c3ccc(c(Cl)c3)Oc3cc2cc(c3O[C@@H]2O[C@H](CO)[C@@H](O)[C@H](O)[C@H]2O[C@H]2C[C@](C)(NCc3ccc(-c4ccc(Cl)cc4)cc3)[C@@H](O)[C@H](C)O2)Oc2ccc(cc2Cl)[C@H]1O [Oritavancin] + C/C(=C\C(=O)OCCCCCCCCC(=O)O)C[C@@H]1OC[C@H](C[C@@H]2O[C@H]2[C@@H](C)[C@H](C)O)[C@@H](O)[C@H]1O [Pseudomonic acid] | 0.0201 | 0.0558 | 0.0197 | 0.0341 |  |  |  | 
